pIC50: −log10 of the molar value. Read-outs that look alike come from different tables or passages of the source.
Experiments:
[1] = molecular target: T1, Recombinant STAT3 protein (STAT3 (G127-I722)) (Homo sapiens, UniProt P40763); assay: STAT3 Fluorescence Polarization (FP) Assay; assay type: binding; conditions: probe 5-FAM-GpYLPQTV-NH2 2 nM, 45-minute incubation
T1 construct: Recombinant STAT3 protein (STAT3 (G127-I722))
Summary of the method: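 Displacement of a 2 nM 5-FAM-labelled pY peptide (GpYLPQTV) from 25 nM recombinant STAT3 (G127-I722) was monitored by fluorescence polarization. Incubation lasted 45 min at room temperature in pH 7.4 HEPES buffer containing 1% DMSO.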

[2] = molecular target: T2, Recombinant STAT6 protein (STAT6 (W123-T658)) (Homo sapiens, UniProt P42226); assay: STAT6 Fluorescence Polarization (FP) Assay; assay type: binding; conditions: probe 5-FAM-Ap[…]-NH2 2 nM, 45-minute incubation
T2 construct: Recombinant STAT6 protein (STAT6 (W123-T658))
T2 sequence (P42226 123-658): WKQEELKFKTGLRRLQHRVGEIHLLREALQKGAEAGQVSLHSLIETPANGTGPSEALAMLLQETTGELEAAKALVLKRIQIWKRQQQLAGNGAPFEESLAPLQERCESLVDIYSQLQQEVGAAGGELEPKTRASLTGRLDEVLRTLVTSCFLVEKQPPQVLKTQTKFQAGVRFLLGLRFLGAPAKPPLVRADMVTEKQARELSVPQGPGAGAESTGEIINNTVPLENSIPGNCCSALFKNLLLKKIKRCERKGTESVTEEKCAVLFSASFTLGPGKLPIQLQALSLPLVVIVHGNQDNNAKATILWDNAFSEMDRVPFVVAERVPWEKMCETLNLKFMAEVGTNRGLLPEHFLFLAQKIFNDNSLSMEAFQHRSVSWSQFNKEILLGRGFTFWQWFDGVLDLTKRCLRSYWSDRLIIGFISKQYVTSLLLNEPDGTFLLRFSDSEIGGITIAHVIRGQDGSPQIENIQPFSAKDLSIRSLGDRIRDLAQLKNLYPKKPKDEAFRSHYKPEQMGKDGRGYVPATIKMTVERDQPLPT
Summary of the method: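 Protein-probe mix (250 nM STAT6 W123-T658, 2 nM 5-FAM-pTyr peptide) in 10 mM HEPES pH 7.4, 50 mM NaCl, 1 mM EDTA, 0.05% Tween 20, 2 mM DTT; added to compound dilution series, 1% DMSO final; 45 min RT; FP read; IC50 via nonlinear regression.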

[3] = STAT3 (G127-I722) 25 nM, read-out: STAT3 (FP assay IC50 class)
[4] = STAT6 (W123-T658) 250 nM, read-out: STAT6 (FP assay IC50 class)
[5] = STAT3 25 nM, read-out: STAT3 (FP assay IC50)
[6] = STAT6 250 nM, read-out: STAT6 (FP assay IC50)

T1 sequence (P40763 127-722): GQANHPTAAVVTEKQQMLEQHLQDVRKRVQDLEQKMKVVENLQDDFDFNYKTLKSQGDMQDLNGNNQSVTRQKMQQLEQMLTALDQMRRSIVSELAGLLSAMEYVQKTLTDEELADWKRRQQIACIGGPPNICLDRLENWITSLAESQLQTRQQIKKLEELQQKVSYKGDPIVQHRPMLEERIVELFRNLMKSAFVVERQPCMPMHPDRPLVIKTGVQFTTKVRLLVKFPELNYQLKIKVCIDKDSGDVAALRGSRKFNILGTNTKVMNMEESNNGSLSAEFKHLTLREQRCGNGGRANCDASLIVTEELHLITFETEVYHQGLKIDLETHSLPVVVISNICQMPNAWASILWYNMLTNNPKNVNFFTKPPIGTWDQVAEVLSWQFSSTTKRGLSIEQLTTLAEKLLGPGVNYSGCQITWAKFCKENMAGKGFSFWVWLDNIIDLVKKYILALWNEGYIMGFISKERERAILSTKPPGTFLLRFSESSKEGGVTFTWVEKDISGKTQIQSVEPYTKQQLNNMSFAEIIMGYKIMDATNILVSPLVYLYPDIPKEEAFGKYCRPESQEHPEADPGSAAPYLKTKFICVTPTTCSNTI

| Compound | pIC50 [1, 3] | pIC50 [2, 4] | pIC50 [1, 5] | pIC50 [2, 6] |
| --- | --- | --- | --- | --- |
| O=C(N[C@H]1CCC[C@H]2CC[C@@H](C(=O)N3CC(c4cnccc4N4CC5(COC5)C4)C3)N2C1=O)c1cc2cc(CP(=O)(O)O)ccc2s1 [Compound 704, ((2-(((3S,6S,9aS)-3-(3-(4-(2-oxa-6-azaspiro[3.3]heptan-6-yl)pyridin-3-yl)azetidine-1-carbonyl)-5-oxooctahydro-1H-pyrrolo[1,2-a]azepin-6-yl)carbamoyl)benzo [b]thiophen-5-yl)methyl) phosphonic acid] | > 7.00 | 4.52 to 5.52 |  |  |
| Cn1ccc(C2CN(C(=O)[C@@H]3CC[C@@H]4CCCC[C@H](NC(=O)c5cc6cc(C(F)(F)P(=O)(O)O)ccc6s5)C(=O)N43)C2)n1 [Compound 65, (difluoro(2-(((3S,6S,10S)-3-(3-(1-methyl-1H-pyrazol-3-yl)azetidine-1-carbonyl)-5-oxodecahydropyrrolo [1,2-a]azocin-6-yl)carbamoyl)benzo[b]thiophen-5-yl)methyl) phosphonic acid] |  |  | 6.00 to 7.00 | 5.52 to 6.52 |
| O=C(N[C@H]1CCC[C@H]2CC[C@@H](C(=O)N3CC(c4cnccc4N4CC[C@@H](F)C4)C3)N2C1=O)c1cc2cc(CP(=O)(O)O)ccc2s1 [Compound 687, ((2-(((3S,6S,9aS)-3-(3-(4-((R)-3-fluoropyrrolidin-1-yl)pyridin-3-yl)azetidine-1-carbonyl)-5-oxooctahydro-1H-pyrrolo[1,2-a]azepin-6-yl)carbamoyl)benzo [b]thiophen-5-yl)methyl) phosphonic acid] | > 7.00 | 4.52 to 5.52 |  |  |
| O=C(N[C@H]1CCC[C@H]2CC[C@@H](C(=O)N3CC(c4cccnc4)C3)N2C1=O)c1cc2cc(CP(=O)(O)O)c(F)cc2[nH]1 [Compound 864, ((6-fluoro-2-(((3S,6S,9aS)-5-oxo-3-(3-(pyridin-3-yl)azetidine-1-carbonyl)octahydro-1H-pyrrolo[1,2-a]azepin-6-yl)carbamoyl)-1H-indol-5-yl)methyl) phosphonic acid] | < 5.00 | 4.52 to 5.52 |  |  |
| N#C[C@@H]1CN(C(=O)[C@@H]2CC[C@@H]3C[C@@H](N4CCC4)CC[C@H](NC(=O)c4cc5cc(C(F)(F)P(=O)(O)O)ccc5s4)C(=O)N32)C[C@H]1c1ccccc1 (relative stereo) [Compound 21, ((2-(((3S,6S,9S,10aR)-9-(azetidin-1-yl)-3-(rel-(trans)-3-cyano-4-phenylpyrrolidine-1-carbonyl)-5-oxodecahydropyrrolo [1,2-a]azocin-6-yl)carbamoyl)benzo[b]thiophen-5-yl)difluoromethyl) phosphonic acid] |  |  | 5.00 to 6.00 | ≥ 6.52 |
| O=C(N[C@H]1CCC[C@H]2CC[C@@H](C(=O)N3C[C@@H](c4cccnc4)CC34CC4)N2C1=O)c1cc2cc([C@@H](F)P(=O)(O)O)ccc2s1 (single isomer, unassigned) [Compound 917] | 5.00 to 6.00 | ≥ 6.52 |  |  |
| O=C(N[C@H]1CCC[C@H]2CC[C@@H](C(=O)N3CCn4cncc4C3)N2C1=O)c1cc2cc(C(F)(F)P(=O)(O)O)ccc2s1 [Compound 203, (difluoro(2-(((3S,6S,9aS)-5-oxo-3-(5,6,7,8-tetrahydroimidazo[1,5-a]pyrazine-7-carbonyl)octahydro-1H-pyrrolo[1,2-a]azepin-6-yl)carbamoyl)benzo[b]thiophen-5-yl)methyl)phosphonic acid] | 6.00 to 7.00 | 5.52 to 6.52 |  |  |
| N#Cc1cccc(C2CN(C(=O)[C@@H]3CC[C@@H]4CCC[C@H](NC(=O)c5cc6cc(C(F)(F)P(=O)(O)O)ccc6s5)C(=O)N43)C2)c1 [Compound 51, ((2-(((3S,6S,9aS)-3-(3-(3-cyanophenyl)azetidine-1-carbonyl)-5-oxooctahydro-1H-pyrrolo[1,2-a]azepin-6-yl)carbamoyl)benzo[b]thiophen-5-yl)difluoromethyl) phosphonic acid] |  |  | > 7.00 | 5.52 to 6.52 |
| Cc1cccnc1C1CN(C(=O)[C@@H]2CC[C@@H]3CCC[C@H](NC(=O)c4cc5cc(CP(=O)(O)O)ccc5s4)C(=O)N32)C1 [Compound 657, ((2-(((3S,6S,9aS)-3-(3-(3-methylpyridin-2-yl)azetidine-1-carbonyl)-5-oxooctahydro-1H-pyrrolo[1,2-a]azepin-6-yl)carbamoyl)benzo [b]thiophen-5-yl)methyl) phosphonic acid] | 5.00 to 6.00 | 4.52 to 5.52 |  |  |
| O=C(N[C@H]1CCC[C@H]2CC[C@@H](C(=O)N[C@H]3CN(c4ncc[nH]4)C[C@@H]3F)N2C1=O)c1cc2cc([C@H](F)P(=O)(O)O)ccc2s1 [Compound 637, ((R)-fluoro(2-(((3S,6S,9aS)-3-(((3S,4S)-4-fluoro-1-(1H-imidazol-2-yl)pyrrolidin-3-yl)carbamoyl)-5-oxooctahydro-1H-pyrrolo[1,2-a]azepin-6-yl)carbamoyl)benzo [b]thiophen-5-yl)methyl) phosphonic acid] | > 7.00 | 5.52 to 6.52 |  |  |
| CC1(C)CC(c2ccccc2)CN1C(=O)[C@@H]1CC[C@@H]2CCCC[C@H](NC(=O)c3cc4cc(C(F)(F)P(=O)(O)O)ccc4s3)C(=O)N21 (stereo partly drawn) [Compound 813, ((2-(((3S,6S,10aS)-3-(2,2-dimethyl-4-phenylpyrrolidine-1-carbonyl)-5-oxodecahydropyrrolo [1,2-a]azocin-6-yl)carbamoyl)benzo [b]thiophen-5-yl)difluoromethyl) phosphonic acid] | 5.00 to 6.00 | 5.52 to 6.52 |  |  |

Other lines, results leading:

| pIC50 [1, 3] | pIC50 [2, 4] | pIC50 [1, 5] | pIC50 [2, 6] | Compound |
| --- | --- | --- | --- | --- |
|  |  | 5.00 to 6.00 | ≥ 6.52 | N#C[C@H]1CN(C(=O)[C@@H]2CC[C@@H]3CCCC[C@H](NC(=O)c4ccc5ccc(C(F)(F)P(=O)(O)O)cc5c4)C(=O)N32)C[C@@H]1c1ccccc1 (mixture of isomers) [Compound 28, ((7-(((3S,6S,10aS)-3-(rel- trans)-3-cyano-4-phenylpyrrolidine-1-carbonyl)-5-oxodecahydropyrrolo [1,2-a]azocin-6-yl)carbamoyl)naphthalen-2-yl) difluoromethyl) phosphonic acid] |
| 6.00 to 7.00 | 4.52 to 5.52 |  |  | COC1(c2cncnc2C)CN(C(=O)[C@@H]2CC[C@@H]3CCC[C@H](NC(=O)c4cc5cc(C(F)(F)P(=O)(O)O)ccc5s4)C(=O)N32)C1 [Compound 721, (difluoro(2-(((3S,6S,9aS)-3-(3-methoxy-3-(4-methylpyrimidin-5-yl)azetidine-1-carbonyl)-5-oxooctahydro-1H-pyrrolo[1,2-a]azepin-6-yl)carbamoyl)benzo [b]thiophen-5-yl)methyl) phosphonic acid] |
| 6.00 to 7.00 | 5.52 to 6.52 |  |  | Cn1cnnc1C1CN(C(=O)[C@@H]2CC[C@@H]3CCC[C@H](NC(=O)c4cc5cc(C(F)(F)P(=O)(O)O)ccc5s4)C(=O)N32)CCO1 (stereo partly drawn) [Compound 1126, (difluoro(2-(((3S,6S,9aS)-3-(2-(4-methyl-4H-1,2,4-triazol-3-yl)morpholine-4-carbonyl)-5-oxooctahydro-1H-pyrrolo[1,2-a]azepin-6-yl)carbamoyl)benzo[b]thiophen-5-yl)methyl)phosphonic acid] |
| 5.00 to 6.00 | ≥ 6.52 |  |  | N#C[C@@H]1[C@@H](c2cccnc2)CN(C(=O)[C@@H]2CC[C@@H]3CCC[C@H](NC(=O)c4cc5cc([C@@H](F)P(=O)(O)O)ccc5s4)C(=O)N32)C12CC2 (single isomer, unassigned) [Compound 837] |
|  |  | 6.00 to 7.00 | 4.52 to 5.52 | CS(=N)(=O)C1CN(C(=O)[C@@H]2CC[C@@H]3CCCC[C@H](NC(=O)c4cc5cc(C(F)(F)P(=O)(O)O)ccc5s4)C(=O)N32)C1 (stereo partly drawn) [Compound 73, (difluoro(2-(((3S,6S,10aS)-3-(3-(S-methylsulfonimidoyl)azetidine-1-carbonyl)-5-oxodecahydropyrrolo [1,2-a]azocin-6-yl)carbamoyl)benzo[b]thiophen-5-yl)methyl) phosphonic acid] |
| 6.00 to 7.00 | 4.52 to 5.52 |  |  | Cc1ccc(C#N)nc1C1CN(C(=O)[C@@H]2CC[C@@H]3CCC[C@H](NC(=O)c4cc5cc(C(F)(F)P(=O)(O)O)ccc5s4)C(=O)N32)C1 [Compound 820, ((2-(((3S,6S,9aS)-3-(3-(6-cyano-3-methylpyridin-2-yl)azetidine-1-carbonyl)-5-oxooctahydro-1H-pyrrolo[1,2-a]azepin-6-yl)carbamoyl)benzo [b]thiophen-5-yl)difluoromethyl) phosphonic acid] |

— US20250215029A1 (Recludix Pharma, Inc., priority 2022, published 2025)
